2 compounds from patent US20070224668A1, “Process for producing 4-vinylguaiacol by biodecaroxylation of ferulic acid” (priority 2006, published 2007) can be followed below.

The data set has as its system wild type B. pumilus. The data set is described as follows: Activity of resting cell in aqueous organic two-phase system (biotransformation of FA to VG). To be noted: two-phase bioconversion, B. pumilus whole cells.

Description: The cells were resuspended in 1 ml of 0.1 M phosphate buffer to a concentration (OD600=5) and mixed with an equal volume of organic solvent in flasks. Biotransformation was started at an initial FA concentration of 36 mM. The experiments were performed under the same conditions as in the mono-phase biotransformation process (Example 1).

With `CCO` [Ethanol], the “Toxicity of solvent to the cells” value is recorded as “toxic to the cells”.

As to `CCOC(C)=O` [Ethyl acetate], the “Toxicity of solvent to the cells” value was “toxic to the cells”.
